From publication PMC6468747 (Cancers, 2019)
Read-outs that look alike come from different tables or passages of the source.

Experiments:
[1] = Plasma pharmacokinetics after single IV and PO dosing; format: in vivo, female CD1 mice; settings: female, CD-1, mouse, plasma; for AUC(0-inf): read-out: AUC(0-inf)
Experimental: 5. In vivo Pharmacokinetics (PK) Determination: These studies were Performed by Charles River Laboratories (CRL), Discovery Services, 251 Ballardvale Street, Wilmington, MA 01887, USA.
The PK studies were performed according to the guidelines and approval of CRL Institutional Animal Care and Use Committee (IACUC) under IACUC approval no: P04172013.
A total of sixty‐four naïve female CD‐1 mice (including 6 spare animals) were received from Charles River Laboratories, Kingston, NY. Following an acclimation period, the animals were assigned to the study based on acceptable health as determined by a staff veterinarian. For dosing, animals were placed into six groups as detailed in the study design table below. All animals were fasted overnight prior to dosing and food was returned after the 4‐h post‐dose blood collections.
Each animal in Groups 1, 3 and 5 received a single administration of prepared test article by intravenous tail administration at a target dose level of 2 mg/kg and dose volume of 10 mL/kg. Each animal in Groups 2, 4 and 6 received a single administration of prepared test article by oral gavage at a target dose level of 20 mg/kg and at a dose volume of 10 mL/kg. Dosing was performed on August 13, 2015 as detailed in the study protocol and was completed without incident. Dose administration […]
Following dosing and at each sample collection time
Group Mices Test Compound Level Conc. Volume Dose Vehicle Route […]
Interim blood samples were collected in a leapfrog design from each animal by puncture of a submandibular vein and a terminal blood sample was collected from each animal by intracardiac puncture following euthanasia with CO2 as outlined in the sample collection table below.
All blood samples were transferred into tubes containing K2EDTA anticoagulant and placed on wet ice immediately after collection until centrifuged at 2200 × g for 10 min at […] to isolate plasma.
The resulting plasma was transferred to individual polypropylene tubes in a 96‐well plate format and immediately placed on dry ice until storage at nominally […] before transfer to the Test Facility’s bioanalysis group for concentration and HPLC analysis. Individual blood collection times are […]
Table S4. Sample Collections.
Collection Information Whole Blood for Plasma Whole Blood for Plasma
Subgroup A (n = 3) 5 min & 1 h post‐dose 8 h post‐dose
Subgroup B (n = 3) 15 min & 4 h post‐dose 12 h post‐dose
Subgroup C (n = 3) 30 min & 6 h post‐dose 24 h post‐dose
Subgroup D (n = 2) Not applicable 2 h post‐dose
Subgroup A (n = 3) 15 min & 2 h post‐dose 8 h post‐dose
Subgroup B (n = 3) 30 min & 4 h post‐dose 12 h post‐dose
Subgroup C (n = 3) 1 hr & 6 h post‐dose 24 h post‐dose
Collection conditions K2EDTA K2EDTA
Collection route Submandibular Intracardiac puncture
Volume/Time point 100 μL Maximum volume
The plasma samples for Groups 1‐6, Subgroups A‐C were analyzed for test article concentration using a Research Grade LC MS/MS Assay (RGA‐Level 1). The bioanalytical report, including plasma […]
Pharmacokinetic parameters were estimated from the plasma concentration‐time data using standard non‐compartmental methods and utilizing suitable analysis software (Watson 7.2 Bioanalytical LIMS, Thermo Electron Corp). Parameters were estimated using nominal sampling times relative to the start of each dose administration (within an acceptable tolerance limit).
Concentrations below the limit of quantification were excluded from the pharmacokinetic analysis.
The area under the plasma test item concentration versus time curve (AUC) was calculated using the linear‐log‐linear trapezoidal method. When practical, the terminal elimination phase of each concentration versus time curve was identified using at least the final three observed concentration values. The slope of the terminal elimination phase was determined using log linear regression on the unweighted concentration data.
Parameter Description of Parameter […]

Mnk1/2 = tested on: Mnk1/2; parameters: method as in PMID 24504069; settings: cited from earlier work
MDA-MB-231 cells [2] = assay: Multiplex Luminex supernatant cytokine analysis; format: cell-based, human; settings: 72 h, cell supernatants
Experimental: Supernatants from the MDA-MB-231 (TNBC) cells in Fetal Bovine Serum (FBS) containing media were treated with various concentrations of VNLG-12R for 72 h, were collected, and various cytokines and growth factor concentrations (CLCX-1, IL-6, IL8 and TNF-α) were determined by Luminex multiplex assay kit (Millipore, Billerica, MA, USA) according to the manufacturer’s instructions. The expressions of secreted cytokines were read on Luminex 100 reader. The data was then analyzed using the BioPlex Software (BioRad, Hercules, CA, USA). The Luminex multiplex assays were conducted at the University of Maryland School of Medicine Cytokine Core Laboratory (Baltimore, MD, USA).

MDA-MB-231 cells [3] = assay: Real time cell invasion assay (xCELLigence); format: cell-based, human; settings: 2.5, 5 and 10 μM, 24 h pre-treatment
Experimental: Real-time measurement of cell invasion was performed using the xCELLigence RTCA DP device (ACEA Biosciences, San Diego, CA, USA). MDA-MB-231 cells were treated with VNLG-152 (2.5, 5, and 10 μM) for 24 h, cells being treated with VNLG-152 when they were plated. Subsequently, cells were seeded (75,000/well) onto 16-well microelectronic censored, two chamber Matrigel-coated trans-well plates (CIM-plates) containing the respective drug in serum-free condition. Medium containing 10% serum (chemo-attractant) was added to the bottom wells. Invasion of cells was measured from the interaction of cells with the electrodes on the bottom surface of top chamber and represented as a change in cell index (CI), an arbitrary unit derived from the relative change in electrical impedance across microelectronic sensor arrays. The electrical impedance was captured every 3 min for an experimental duration of 24 h. The rate of invasion is expressed as the CI or the change in electrical impedance at each timepoint. Values are expressed as the ±SEM of the duplicate wells from three independent experiments.

Mnk1 = target: T1, Mnk1 (Homo sapiens, UniProt Q9BUB5); assay: Surface plasmon resonance (OpenSPR) binding to immobilized GST-Mnk1; settings: SPR, 1.25, 10 and 30 µM, 1:1 Langmuir model, 30 °C, scouting analysis; read-out: dissociation constant (KD)
T1 construct: incubated with recombinant full length Mnk1 proteins or cell lysates overnight at 4 °C; GST
Experimental: Purified recombinant Mnk1 protein with GST tag (2.5 µg/mL) was fixed on GST sensor chip (Nicoya) by capture-coupling, then VNLG-152R (1.25, 10 and 30 µM) were injected (flow rate of 20 µL/min) sequentially into the chamber in running buffer (PBS-T with 10% DMSO). The interaction of Mnk1 with VNLG-152R was detected by Open SPRTM (Nicoya Lifesciences, Kitchener, ON, Canada) at 30 °C. The chip was regenerated with regeneration solution (10 mM glycine-HCL) at a flow rate of 150 µL/min. The close curve fitting to the sensograms were calculated by global fitting curves (1:1 Langmuir binding model). The data was retrieved and analyzed with TraceDraw software (Kitchener, ON, Canada).

T1 sequence (Q9BUB5 whole entry): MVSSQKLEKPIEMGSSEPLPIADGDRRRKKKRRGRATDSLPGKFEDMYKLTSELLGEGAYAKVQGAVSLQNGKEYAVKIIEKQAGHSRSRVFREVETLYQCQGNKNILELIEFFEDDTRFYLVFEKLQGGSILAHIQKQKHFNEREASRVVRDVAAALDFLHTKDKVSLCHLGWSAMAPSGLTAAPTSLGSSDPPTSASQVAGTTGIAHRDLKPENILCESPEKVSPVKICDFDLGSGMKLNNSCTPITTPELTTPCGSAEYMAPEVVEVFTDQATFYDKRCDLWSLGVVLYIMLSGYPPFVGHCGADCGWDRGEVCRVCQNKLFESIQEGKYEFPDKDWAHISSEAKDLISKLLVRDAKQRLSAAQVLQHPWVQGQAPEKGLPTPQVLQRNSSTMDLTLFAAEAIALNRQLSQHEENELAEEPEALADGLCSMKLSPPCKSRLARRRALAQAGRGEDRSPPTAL

With CC1=C(/C=C/C(C)=C/C=C/C(C)=C/C(=O)Nc2ccc(F)cc2)C(C)(C)CCC1n1ccnc1 (racemic) [VNLG-152R, 4-(±)-(1H-imidazol-1-yl)-N-(4-fluorophenyl)-(E)-retinamide] the bioavailability ([1]; PO 20 mg/kg vs IV 2 mg/kg, read-out: F (%) oral bioavailability) was 121%, the half-life ([1]; IV, 2 mg/kg) was 1.92 h and the AUC(0-inf) ([1]; IV, 2 mg/kg) was 1130 ng·h/mL. For the same compound, the half-life ([1]; PO, 20 mg/kg) was 9.25 h, the AUC(0-inf) ([1]; PO, 20 mg/kg) was 13700 ng·h/mL and the Cmax ([1]; PO, 20 mg/kg, read-out: Cmax) was 3750 ng/mL. For the same compound, the “inhibition of Mnk1/2 kinase activities” value (Mnk1/2) was “no inhibition of Mnk1/2 kinase activities”, the “secreted IL-6 and IL-8, TNFα and chemokine CXCL1” value (MDA-MB-231 cells [2]) was “dose-dependent reduction” and the “invasive ability (cell index)” value (MDA-MB-231 cells [3]) was “significantly lower”. The Kd (Mnk1) was 6.46 µM.
